How the values were obtained:
[1] = system: MKN45 xenograft tumor; test: MKN45 xenograft: 1D228 alone versus Tepotinib and Larotrectinib; format: in vivo, nude mouse
Protocol: Male BALB/c nude mice (5-week old, 18–20 g) were purchased from Beijing Vital River Laboratory Animal Technology (Beijing Vital River LaboratoryAnimal Technology Co., Ltd., Beijing,China) and allowed to acclimate for 1 week, maintained at constant room temperature and fed a standard rodent chow and water. 1 × 10^7 cells/mL cancer cells grown in logarithmic phase were harvested and resuspended in FBS-free 1640 medium. Then, 100 μL of the cell suspension was subcutaneously injected into the right flank of each mouse. When the tumour volume was reached about 600–800 mm^3, it was removed, minced into small pieces of equal volume (2 × 2 × 2 mm^3), and transplanted subcutaneously into the nude mice. […]

[2] = Hematoxylin and eosin histology of major tissues; format: in vivo; conditions: following various treatments
Protocol: Female and male Kunming mice (36 mice each, 18 ~ 25 g) were purchased and housed at the SPF (Beijing) Biotechnology Co. in pathogen-free condition, maintained at constant room temperature and fed a standard rodent chow and water. The mice were randomly divided into experimental group and control group. […]. The heart, liver, lung and kidney of mice in the 750 mg/kg dose group were taken and fixed for HE staining.

[3] = system: Cyclin D1; test: Western blot of Cyclin D1; format: cell-based; conditions: 5 nM and 10 nM
Protocol: Proteins (25–50 ug/lane) were separated on a 4–12% Bis-Tris NuPAGE gel and blotted onto a PVDF membrane (FluoroTrans; VWR). […] Horseradish peroxidase-conjugated secondary antibodies were from Cell Signaling. Proteins were visualized by enhanced chemiluminescence (Millipore) on ChemiDoc camera (Bio-Rad) and protein expression levels were quantified using the lmageJ software. Full anduncropped western blots are presented in Supplemental File.

[4] = system: MNK45 cell line; test: Apoptosis assay, annexin V and PI staining, flow cytometry; format: cell-based, human; conditions: control group 5%
Protocol: MHCC97H or MKN45 cells were seeded in 6-well plates (3 × 10^4 cells/well) and incubated in the presence or absence of compound 1D228, for the cell apoptosis assay, cells were harvested and incubated with 5 μL of Annexin-V/FITC (Keygen Biotech, China) in binding buffer (10 mM HEPES, 140 mM NaCl, and 2.5 mM CaCl2 at pH 7.4) at room temperature for 15 min. PI solution was then added to the medium for another 10 min-incubation. Almost 10,000 events were collected for each sample and analysed by flow cytometry (Beckman Coulter, Epics XL). For the cell cycle assay, cells were fixed in ice-cold 70% ethanol overnight. After the ethanol was removed the next day, the cells were re-suspended in ice-cold PBS, treated with RNAse A (Keygen Biotech, China) at 37 °C for 30 min, and then incubated with the DNA staining solution propidium iodide (PI, Keygen Biotech, China) at 4 °C for 30 min. Approximately 10,000 events were detected by flow cytometry (Beckman Coulter, Epics XL) at 488 nm. The data regarding the number of cells in different phases of the cell cycle were analysed using EXPO32 ADC analysis software.

[5] = system: MKN45 xenograft tumor; test: MKN45 xenograft tumor model; format: in vivo, BALB/c nude mice; conditions: ig
Protocol: Male BALB/c nude mice (5-week old, 18–20 g) were purchased from Beijing Vital River Laboratory Animal Technology (Beijing Vital River LaboratoryAnimal Technology Co., Ltd., Beijing,China) and allowed to acclimate for 1 week, maintained at constant room temperature and fed a standard rodent chow and water. 1 × 10^7 cells/mL cancer cells grown in logarithmic phase were harvested and resuspended in FBS-free 1640 medium. Then, 100 μL of the cell suspension was subcutaneously injected into the right flank of each mouse. When the tumour volume was reached about 600–800 mm^3, it was removed, minced into small pieces of equal volume (2 × 2 × 2 mm^3), and transplanted subcutaneously into the nude mice. When the tumour volume was reached about 200–400 mm^3, the xenograft tumour-bearing nude mice were randomly allocated to five groups (vehicle-treated, 1D228-2mgd-treated, 1D228-4mgd-treated […] Tepotinib-treated groups, with 6 or 8 mice (The number of mice were determined according to previous experience on xenograft tumor models) per group. Each group was dosed by intragastric administration (ig) for 7–14 days. Tumour volume and body weights were recorded every day after drug treatment. At the end of the observation period, the animals were euthanized by cervical dislocation and the tumour bulks were peeled off conformed to the Guide for the Care and Use of Laboratory Animals as published by the US National Institutes of Health (NIH Publication No. 85-23, revised 1996) and approved by the Institutional Ethics Review Board of Binzhou Medical University. There was no blinding was done during the animal experiment. No animals were excluded from the analysis.

## [2H][C@@](C)(c1cccc(-c2ncc(OCC3CCN(C)CC3)cn2)c1)n1nc(-c2cccc(C#N)c2)ccc1=O [1D228]
[1]; MKN45 gastric cancer nude mouse transplant tumor
  Tumor volume reduction: ~90%
[1]; MKN45 xenograft
  Body weight of tumor bearing mice: the opposite was true
[2]
  Toxicity in H&E-stained heart, liver, lung and kidney: no evidence of toxicity
[3]
  Cyclin D1 expression: substantially inhibited
[4]; annexin V / PI staining
  Apoptosis: 53–75%
[4]
  Apoptosis, times higher than in the control group: 10–15 times
[5]; 2 mg/kg/d
  TGI: 74.4%
[5]; 4 mg/kg/d
  TGI: 90.7%
[5]; 8 mg/kg/d
  TGI: 94.8%

From publication PMC10636171 (Cell Death & Disease, 2023)
